Laboratory results: patent US10757937B2, “Sulfonamides that activate ABA receptors” (The Regents of the University of California, priority 2014, dated 2020)
Like-named read-outs stand apart in the source and are kept apart here.

Legend:
PYL4 = target: T1, PYL4 (Arabidopsis thaliana, UniProt O80920); assay: receptor-mediated PP2C (HAB1) inhibition in vitro assay; format: biochemical; settings: compound at 25 μM; control without agonist = 100%
T1 construct: 6X-His; made in house; host or cells: E. coli BL21[DE3]pLysS
T1 sequence (O80920 1-207): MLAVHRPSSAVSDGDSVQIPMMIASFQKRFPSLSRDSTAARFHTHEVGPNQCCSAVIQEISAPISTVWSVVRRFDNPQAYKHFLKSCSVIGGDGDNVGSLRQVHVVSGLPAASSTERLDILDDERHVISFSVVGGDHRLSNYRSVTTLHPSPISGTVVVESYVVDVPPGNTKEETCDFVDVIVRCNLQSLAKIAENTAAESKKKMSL
T1 sequence (Q9CAJ0 23-511 partner): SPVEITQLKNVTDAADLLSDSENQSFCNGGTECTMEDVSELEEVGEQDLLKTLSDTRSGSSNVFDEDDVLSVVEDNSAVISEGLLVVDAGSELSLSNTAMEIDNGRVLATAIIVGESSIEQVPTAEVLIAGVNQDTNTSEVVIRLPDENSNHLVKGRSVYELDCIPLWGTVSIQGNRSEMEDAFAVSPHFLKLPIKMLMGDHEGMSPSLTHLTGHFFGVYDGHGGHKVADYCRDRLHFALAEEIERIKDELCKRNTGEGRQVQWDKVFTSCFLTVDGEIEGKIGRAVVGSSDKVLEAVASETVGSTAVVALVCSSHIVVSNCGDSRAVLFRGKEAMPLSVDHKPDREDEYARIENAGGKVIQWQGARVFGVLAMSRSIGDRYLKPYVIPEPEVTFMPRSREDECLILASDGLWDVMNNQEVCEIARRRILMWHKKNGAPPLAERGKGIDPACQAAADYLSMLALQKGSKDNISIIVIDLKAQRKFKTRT
Experimental: (§1) A family of 62 structurally related N-acyl sulfonamides (Tables I-V) were tested for ABA agonist activity using multiple receptor-mediated PP2C inhibition in vitro assays (Park et al., 2009). […] The constructs utilized for protein expression have been previously described (Okamoto et al. 2013). For constructs encoding 6X-His-fusion proteins (all receptors except PYL11), the coding sequences were of the receptors were cloned in the vector pET28, expressed in BL21[DE3]pLysS E. coli host cells at 18° C. overnight, and subsequently purified from sonicated lysates using Ni-NTA agarose (Qiagen, USA), according to the manufacturer's instructions. PYL11 was constructed as a maltose binding protein fusion in the vector pMAL-c, expressed in BL21┌DE3┐pLysS host cells and purified using amylose resin (New England Biolabs) as described by the manufacturer. Recombinant GST-HAB1 was expressed and purified as described previously (Park et al., 2009). PP2C activity assays were conducted using the fluorogenic phosphatase substrate 4-methylumbelliferyl-phosphate. Recombinant receptors and HAB1 were used to examine ligand-induced PP2C inactivation in response to multiple test compounds. Enzyme inhibition assays were conducted using the following assay conditions: 50 nM GST-PP2C, 100 mM Tris-OAc (pH 7.9), 100 mM NaCl, 1 mM MnCl2, 1% β-mercaptoethanol. […] Because of this, the ratio of each receptor used in the PP2C-inhibitions assays was established empirically as the minimum fold-excess of receptor required to elicit maximal PP2C inhibition at a saturating ABA concentration (10 μM).
(§2) Based on this criterion, we used a ratio of 2:1 receptor in the assays described herein.
(§3) Using the above assay conditions, compounds were tested at 25 μM for agonist activity on PYL4, PYL5, PYL8 and PYL9. […] Consequently, a subset of the compounds was tested at multiple concentrations against 11 receptors so that IC50 values and receptor selectivity profiles could be examined. […] Thus, the N-acylsulfonamide agonists disclosed are selective for monomeric receptors.
(§4) Additional compounds were tested for biological activity following the procedures of Example 1 with minor modifications.
(§5) For these in vitro receptor assays, the compounds listed were tested in in vitro PP2C inhibition assays with 50 uM of the test compound except for ABA (10 uM). IC50s were calculated from dose curves, but only for selected compounds.

PYL5 = target: T2, PYL5 (Arabidopsis thaliana, UniProt Q9FLB1); assay: as above; format: biochemical; settings: compound at 25 μM; control without agonist = 100%
T2 construct: 6X-His; made in house; host or cells: E. coli BL21[DE3]pLysS
T2 sequence (Q9FLB1 1-203): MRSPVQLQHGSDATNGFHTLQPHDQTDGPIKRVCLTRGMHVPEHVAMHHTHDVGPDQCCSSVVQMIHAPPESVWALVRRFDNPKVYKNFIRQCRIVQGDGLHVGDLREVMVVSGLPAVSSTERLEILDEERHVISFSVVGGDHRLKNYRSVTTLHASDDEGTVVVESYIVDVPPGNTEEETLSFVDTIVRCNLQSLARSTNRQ
T2 sequence (Q9CAJ0 23-511 partner): T1 sequence (Q9CAJ0 23-511 partner)
Experimental: as §1, §2, §3, §4, §5

PYL8 = target: T3, PYL8 (Arabidopsis thaliana, UniProt Q9FGM1); assay: as above; format: biochemical; settings: compound at 25 μM; control without agonist = 100%
T3 construct: 6X-His; made in house; host or cells: E. coli BL21[DE3]pLysS
T3 sequence (Q9FGM1 1-188): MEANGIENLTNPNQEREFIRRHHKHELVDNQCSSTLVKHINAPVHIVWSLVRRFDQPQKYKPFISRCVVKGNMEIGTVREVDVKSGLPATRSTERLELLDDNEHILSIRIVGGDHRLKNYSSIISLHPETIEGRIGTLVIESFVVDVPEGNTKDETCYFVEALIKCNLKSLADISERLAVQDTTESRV
T3 sequence (Q9CAJ0 23-511 partner): T1 sequence (Q9CAJ0 23-511 partner)
Experimental: as §1, §2, §3, §4, §5

PYL9 = target: T4, PYL9 (Arabidopsis thaliana, UniProt Q84MC7); assay: as above; format: biochemical; settings: compound at 25 μM; control without agonist = 100%
T4 construct: 6X-His; made in house; host or cells: E. coli BL21[DE3]pLysS
T4 sequence (Q84MC7 1-187): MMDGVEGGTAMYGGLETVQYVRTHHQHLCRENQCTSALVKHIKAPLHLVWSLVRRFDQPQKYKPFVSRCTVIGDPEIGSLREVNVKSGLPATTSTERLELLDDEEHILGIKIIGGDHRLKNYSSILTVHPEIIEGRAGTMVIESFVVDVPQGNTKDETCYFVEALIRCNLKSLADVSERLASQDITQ
T4 sequence (Q9CAJ0 23-511 partner): T1 sequence (Q9CAJ0 23-511 partner)
Experimental: as §1, §2, §3, §4, §5

[1] = tested on: Arabidopsis seed germination and hypocotyl growth; assay: Arabidopsis seed germination and hypocotyl growth; format: in vivo; settings: − = none; for Hypocotyl Growth Inhibition: lowest concentration that inhibited hypocotyl growth in wells where seeds germinated; for minimal effective concentration: Table VIII, tested at 10 or 50 μM, lowest inhibiting concentration
Experimental: We germinated seeds from wild type on ½× strength Murashige and Skoog salts growth medium containing either 10 or 50 μM for all 62 compounds as well as 1 μM (+)-ABA and mock controls. […] To investigate if the any of the compounds are sufficient to control vegetative ABA responses, we treated three week old Arabidopsis plants with aqueous solutions containing 0.02% Silwet and either 50 μM of selected N-acylsulfonamides, 50 μM ABA or 0.1% DMSO (the carrier solvent for the compounds tested). The leaf temperatures were subsequently examined using a thermal imaging camera 24 hours after treatment. It is well known that ABA-induced guard cell closure reduces transpiration, which leads to increases in leaf temperatures. It has been estimated that a 1° C. increase in leaf temperature correlates with a decrease in transpiration rates by approximately 50% (Sirault et al., 2009). Since guard cell aperture is the primary determinant of transpiration rates, thermal imaging is a useful way to indirectly infer relative transpiration rates and, indirectly, relative degrees of guard cell opening at the whole plant level.
as §4
For the germination inhibition experiment, the compounds were tested at 10 and 50 uM. The amounts shown are the lowest of the two concentrations that either inhibited germination or hypocotyl growth in wells where seeds germinated.
For the germination test, the compounds were tested at 1, 5, 10, 25 and 50 uM. The amounts shown are the lowest of the concentrations that either inhibited germination or hypocotyl growth in the wells where seeds germinated.

[2] = Germination Inhibition II, tested at 10 and 50 uM
[3] = read-out: Hypocotyl Growth Inhibition

PP2C Activity (25 μm) PYL4 (PYL4) [%]	PP2C Activity (25 μm) PYL5 (PYL5) [%]	PP2C Activity (25 μm) PYL8 (PYL8) [%]	PP2C Activity (25 μm) PYL9 (PYL9) [%]	remaining activity at 25 µM (PYL4) [%]	remaining activity at 25 µM (PYL5) [%]	remaining activity at 25 µM (PYL8) [%]	remaining activity at 25 µM (PYL9) [%]	Structure (SMILES)	Hypocotyl Growth Inhibition [1, 2] [µM]	minimal effective concentration [1, 3] [µM]	Germination Inhibition ([1]; Germination Inhibition II, tested at 10 and 50 uM, lowest of the two concentrations that inhibited) [µM]	minimal effective concentration ([1]; ABA at 1 μM, read-out: Germination Inhibition) [µM]
97	68	106	109					CC(C)(C(=O)NS(=O)(=O)Cc1ccc(C#N)cc1)c1ccc2ccccc2c1 [Compound 54]	50	50		
97	103	108	108					CC(C)COc1ccc(C(C)(C)C(=O)NS(=O)(=O)Cc2ccc(C#N)cc2)cc1 [Compound 14]				
90	70	101	101					N#Cc1ccc(CS(=O)(=O)NC(=O)C2(c3ccccc3)CCN(S(=O)(=O)c3ccccc3)CC2)cc1 [Compound 60]				
96	83	84	83					N#Cc1ccc(CS(=O)(=O)NC(=O)C2(c3cccc(Cl)c3)CCOCC2)cc1 [Compound 58]				
93	47	43	30					CC(C)(C(=O)NS(=O)(=O)Cc1ccc(C#N)cc1)c1cccc(F)c1 [Compound 16]	10	10	50	50
				98	103	100	100	O=C(NS(=O)(=O)Cc1cccc2cccnc12)C1(c2ccccc2)CC1 [Compound 62]				
93	44	62	58					CC(C)(C(=O)NS(=O)(=O)Cc1ccc(C#N)cc1)c1ccc(C(F)(F)F)cc1 [Compound 11]				
89	89	98	102					COc1ccc(C(C)(C)C(=O)NS(=O)(=O)Cc2ccc(C#N)cc2)cc1OC [Compound 21]				
94	105	106	108					CC(=O)N1CCC(C(=O)NS(=O)(=O)Cc2ccc(C#N)cc2)(c2ccccc2)CC1 [Compound 56]				
96	95	72	49					CC(C)(C(=O)NS(=O)(=O)Cc1ccc2cccnc2c1)c1ccccc1 [Compound 55]				
91	100	56	39					N#Cc1ccc(CS(=O)(=O)NC(=O)C2(c3cccc(F)c3)CCOCC2)cc1 [Compound 57]				
92	65	97	98					N#Cc1ccc(CS(=O)(=O)NC(=O)C2(c3ccc(C(F)(F)F)cc3)CCOCC2)cc1 [Compound 59]				

Structure (SMILES)	PP2C Activity (25 μm) PYL4 (PYL4) [%]	PP2C Activity (25 μm) PYL5 (PYL5) [%]	PP2C Activity (25 μm) PYL8 (PYL8) [%]	PP2C Activity (25 μm) PYL9 (PYL9) [%]	remaining activity at 25 µM (PYL4) [%]	remaining activity at 25 µM (PYL5) [%]	remaining activity at 25 µM (PYL8) [%]	remaining activity at 25 µM (PYL9) [%]	Hypocotyl Growth Inhibition [1, 2] [µM]	minimal effective concentration [1, 3] [µM]	Germination Inhibition ([1]; Germination Inhibition II, tested at 10 and 50 uM, lowest of the two concentrations that inhibited) [µM]	minimal effective concentration ([1]; ABA at 1 μM, read-out: Germination Inhibition) [µM]
CCc1ccc(C(C)(C)C(=O)NS(=O)(=O)Cc2ccc(C#N)cc2)cc1 [Compound 20]	95	88	104	98								
N#Cc1ccc(CS(=O)(=O)NC(=O)C2(c3ccc(Cl)cc3)CCC2)cc1 [Compound 28]	96	65	55	37					10	10		
N#Cc1ccc(CS(=O)(=O)NC(=O)C2(c3ccc(C(F)(F)F)cc3)CC2)cc1 [Compound 45]	93	30	74	53								
CCOc1ccc(C2(C(=O)NS(=O)(=O)Cc3ccc(C#N)cc3)CC2)cc1 [Compound 52]	94	99	91	98								
Cc1cc(C)cc(C2(C(=O)NS(=O)(=O)Cc3ccc(C#N)cc3)CC2)c1 [Compound 36]	91	34	98	94								
N#Cc1ccc(CS(=O)(=O)NC(=O)C2(c3ccccc3F)CC2)cc1 [Compound 47]	95	28	86	75								
CC(C)(C)c1ccc(C2(C(=O)NS(=O)(=O)Cc3ccc(C#N)cc3)CC2)cc1 [Compound 40]	92	101	106	103								
N#Cc1ccc(CS(=O)(=O)NC(=O)C2(c3ccc(Br)cc3)CCC2)cc1 [Compound 31]	97	77	80	74								
